Source: ChEMBL document CHEMBL1152211, “Structure-activity study at positions 3 and 4 of human neuropeptide S” (Bioorg Med Chem, 2008)
Structures can show the parent of a compound that is named as a salt. Non-standard residues stand in square brackets, D forms with d. Residues, ends and D or L forms follow the SMILES beside them. *: point of attachment. Arg(NO2) = N=C(NCCC[C@H](N)C(=O)O)N[N+](=O)[O-]; Arg(Me2a) = CN(C)C(=N)NCCC[C@H](N)C(=O)O; Arg(Me2s) = CN=C(NC)NCCC[C@H](N)C(=O)O; Nva(4-oxo) = CC(=O)C[C@H](N)C(=O)O; 2Pal = N[C@@H](Cc1ccccn1)C(=O)O; Tos = Cc1ccc(S(=O)(=O)*)cc1; Dab = NCC[C@H](N)C(=O)O; Nva = CCC[C@H](N)C(=O)O; Abu = CC[C@H](N)C(=O)O; Tfa = O=C(C(F)(F)F)*

Each compound was assayed against T1, Neuropeptide S receptor (Mus musculus, UniProt Q8BZP8) (assay: Agonist activity at mouse NPSR expressed in HEK293 cells assessed as increase in intracellular calcium mobilization by FLIPR).
T1 sequence (Q8BZP8 whole entry): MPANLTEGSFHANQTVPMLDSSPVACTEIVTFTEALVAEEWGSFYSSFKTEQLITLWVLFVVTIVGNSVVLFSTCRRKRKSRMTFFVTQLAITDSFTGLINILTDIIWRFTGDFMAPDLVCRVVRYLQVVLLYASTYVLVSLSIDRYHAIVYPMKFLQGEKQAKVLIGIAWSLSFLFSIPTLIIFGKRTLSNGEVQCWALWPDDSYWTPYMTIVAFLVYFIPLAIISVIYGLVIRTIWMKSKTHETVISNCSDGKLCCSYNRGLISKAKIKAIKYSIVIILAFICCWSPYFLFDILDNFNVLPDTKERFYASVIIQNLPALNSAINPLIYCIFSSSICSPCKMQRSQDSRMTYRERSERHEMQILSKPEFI
Assay type: functional, cell-based

EC50 [µM] | Compound
0.0851 | CSCC[C@H](NC(=O)CNC(=O)[C@@H](NC(=O)CNC(=O)[C@@H](NC(=O)CNC(=O)[C@H](CC(N)=O)NC(=O)[C@H](CCCCNC(=O)C(F)(F)F)NC(=O)[C@H](Cc1ccccc1)NC(=O)[C@@H](N)CO)C(C)C)[C@@H](C)O)C(=O)N[C@@H](CCCCN)C(=O)N[C@@H](CCCCN)C(=O)N[C@H](C(=O)N[C@@H](CO)C(=O)N[C@@H](Cc1ccccc1)C(=O)N[C@@H](CCC(N)=O)C(=O)N[C@@H](CCCNC(=N)N)C(=O)N[C@@H](C)C(=O)N[C@@H](CCCCN)C(=O)N[C@@H](CO)C(=O)O)[C@@H](C)O (H-SFK(Tfa)NGVGTGMKKTSFQRAKS-OH)
0.513 | CC[C@H](NC(=O)[C@H](Cc1ccccc1)NC(=O)[C@@H](N)CO)C(=O)N[C@@H](CC(N)=O)C(=O)NCC(=O)N[C@H](C(=O)NCC(=O)N[C@H](C(=O)NCC(=O)N[C@@H](CCSC)C(=O)N[C@@H](CCCCN)C(=O)N[C@@H](CCCCN)C(=O)N[C@H](C(=O)N[C@@H](CO)C(=O)N[C@@H](Cc1ccccc1)C(=O)N[C@@H](CCC(N)=O)C(=O)N[C@@H](CCCNC(=N)N)C(=O)N[C@@H](C)C(=O)N[C@@H](CCCCN)C(=O)N[C@@H](CO)C(=O)O)[C@@H](C)O)[C@@H](C)O)C(C)C (H-SF[Abu]NGVGTGMKKTSFQRAKS-OH)
0.0224 | CSCC[C@H](NC(=O)CNC(=O)[C@@H](NC(=O)CNC(=O)[C@@H](NC(=O)CNC(=O)[C@H](CC(N)=O)NC(=O)[C@H](CCCNC(=N)N(C)C)NC(=O)[C@H](Cc1ccccc1)NC(=O)[C@@H](N)CO)C(C)C)[C@@H](C)O)C(=O)N[C@@H](CCCCN)C(=O)N[C@@H](CCCCN)C(=O)N[C@H](C(=O)N[C@@H](CO)C(=O)N[C@@H](Cc1ccccc1)C(=O)N[C@@H](CCC(N)=O)C(=O)N[C@@H](CCCNC(=N)N)C(=O)N[C@@H](C)C(=O)N[C@@H](CCCCN)C(=O)N[C@@H](CO)C(=O)O)[C@@H](C)O (H-SF[Arg(Me2a)]NGVGTGMKKTSFQRAKS-OH)
0.0316 | C/N=C(/NC)NCCC[C@H](NC(=O)[C@H](Cc1ccccc1)NC(=O)[C@@H](N)CO)C(=O)N[C@@H](CC(N)=O)C(=O)NCC(=O)N[C@H](C(=O)NCC(=O)N[C@H](C(=O)NCC(=O)N[C@@H](CCSC)C(=O)N[C@@H](CCCCN)C(=O)N[C@@H](CCCCN)C(=O)N[C@H](C(=O)N[C@@H](CO)C(=O)N[C@@H](Cc1ccccc1)C(=O)N[C@@H](CCC(N)=O)C(=O)N[C@@H](CCCNC(=N)N)C(=O)N[C@@H](C)C(=O)N[C@@H](CCCCN)C(=O)N[C@@H](CO)C(=O)O)[C@@H](C)O)[C@@H](C)O)C(C)C (H-SF[Arg(Me2s)]NGVGTGMKKTSFQRAKS-OH)
0.0219 | CSCC[C@H](NC(=O)CNC(=O)[C@@H](NC(=O)CNC(=O)[C@@H](NC(=O)CNC(=O)[C@H](CC(N)=O)NC(=O)[C@H](CCCN/C(N)=N/[N+](=O)[O-])NC(=O)[C@H](Cc1ccccc1)NC(=O)[C@@H](N)CO)C(C)C)[C@@H](C)O)C(=O)N[C@@H](CCCCN)C(=O)N[C@@H](CCCCN)C(=O)N[C@H](C(=O)N[C@@H](CO)C(=O)N[C@@H](Cc1ccccc1)C(=O)N[C@@H](CCC(N)=O)C(=O)N[C@@H](CCCNC(=N)N)C(=O)N[C@@H](C)C(=O)N[C@@H](CCCCN)C(=O)N[C@@H](CO)C(=O)O)[C@@H](C)O (H-SF[Arg(NO2)]NGVGTGMKKTSFQRAKS-OH)

Each compound was assayed against T2, Neuropeptide S receptor (Mus musculus) (UniProt Q8BZP8) (assay: Agonist activity at mouse NPSR expressed in HEK293 cells assessed as increase in intracellular calcium mobilization by FLIPR relative to baseline).
T2 sequence (whole entry): T1 sequence (Q8BZP8 whole entry)
Assay type: functional, cell-based

Emax [%] | Compound
231 | CSCC[C@H](NC(=O)CNC(=O)[C@@H](NC(=O)CNC(=O)[C@@H](NC(=O)CNC(=O)[C@H](CC(N)=O)NC(=O)[C@H](CCCCNC(=O)C(F)(F)F)NC(=O)[C@H](Cc1ccccc1)NC(=O)[C@@H](N)CO)C(C)C)[C@@H](C)O)C(=O)N[C@@H](CCCCN)C(=O)N[C@@H](CCCCN)C(=O)N[C@H](C(=O)N[C@@H](CO)C(=O)N[C@@H](Cc1ccccc1)C(=O)N[C@@H](CCC(N)=O)C(=O)N[C@@H](CCCNC(=N)N)C(=O)N[C@@H](C)C(=O)N[C@@H](CCCCN)C(=O)N[C@@H](CO)C(=O)O)[C@@H](C)O (H-SFK(Tfa)NGVGTGMKKTSFQRAKS-OH)
218 | CC[C@H](NC(=O)[C@H](Cc1ccccc1)NC(=O)[C@@H](N)CO)C(=O)N[C@@H](CC(N)=O)C(=O)NCC(=O)N[C@H](C(=O)NCC(=O)N[C@H](C(=O)NCC(=O)N[C@@H](CCSC)C(=O)N[C@@H](CCCCN)C(=O)N[C@@H](CCCCN)C(=O)N[C@H](C(=O)N[C@@H](CO)C(=O)N[C@@H](Cc1ccccc1)C(=O)N[C@@H](CCC(N)=O)C(=O)N[C@@H](CCCNC(=N)N)C(=O)N[C@@H](C)C(=O)N[C@@H](CCCCN)C(=O)N[C@@H](CO)C(=O)O)[C@@H](C)O)[C@@H](C)O)C(C)C (H-SF[Abu]NGVGTGMKKTSFQRAKS-OH)
288 | CSCC[C@H](NC(=O)CNC(=O)[C@@H](NC(=O)CNC(=O)[C@@H](NC(=O)CNC(=O)[C@H](CC(N)=O)NC(=O)[C@H](CCCN/C(N)=N/[N+](=O)[O-])NC(=O)[C@H](Cc1ccccc1)NC(=O)[C@@H](N)CO)C(C)C)[C@@H](C)O)C(=O)N[C@@H](CCCCN)C(=O)N[C@@H](CCCCN)C(=O)N[C@H](C(=O)N[C@@H](CO)C(=O)N[C@@H](Cc1ccccc1)C(=O)N[C@@H](CCC(N)=O)C(=O)N[C@@H](CCCNC(=N)N)C(=O)N[C@@H](C)C(=O)N[C@@H](CCCCN)C(=O)N[C@@H](CO)C(=O)O)[C@@H](C)O (H-SF[Arg(NO2)]NGVGTGMKKTSFQRAKS-OH)

What follows are compounds tested against T2, Neuropeptide S receptor (Mus musculus) (assay: Agonist activity at mouse NPSR expressed in HEK293 cells assessed as increase in intracellular calcium mobilization at 10 uM by FLIPR).
Assay type: functional, cell-based

Activity [%] | Compound
188 | CNC(=O)C[C@H](NC(=O)[C@H](CCCNC(=N)N)NC(=O)[C@H](Cc1ccccc1)NC(=O)[C@@H](N)CO)C(=O)NCC(=O)N[C@H](C(=O)NCC(=O)N[C@H](C(=O)NCC(=O)N[C@@H](CCSC)C(=O)N[C@@H](CCCCN)C(=O)N[C@@H](CCCCN)C(=O)N[C@H](C(=O)N[C@@H](CO)C(=O)N[C@@H](Cc1ccccc1)C(=O)N[C@@H](CCC(N)=O)C(=O)N[C@@H](CCCNC(=N)N)C(=O)N[C@@H](C)C(=O)N[C@@H](CCCCN)C(=O)N[C@@H](CO)C(=O)O)[C@@H](C)O)[C@@H](C)O)C(C)C (H-SFRD(NHMe)GVGTGMKKTSFQRAKS-OH)
136 | CSCC[C@H](NC(=O)CNC(=O)[C@@H](NC(=O)CNC(=O)[C@@H](NC(=O)CNC(=O)[C@H](CC(C)=O)NC(=O)[C@H](CCCNC(=N)N)NC(=O)[C@H](Cc1ccccc1)NC(=O)[C@@H](N)CO)C(C)C)[C@@H](C)O)C(=O)N[C@@H](CCCCN)C(=O)N[C@@H](CCCCN)C(=O)N[C@H](C(=O)N[C@@H](CO)C(=O)N[C@@H](Cc1ccccc1)C(=O)N[C@@H](CCC(N)=O)C(=O)N[C@@H](CCCNC(=N)N)C(=O)N[C@@H](C)C(=O)N[C@@H](CCCCN)C(=O)N[C@@H](CO)C(=O)O)[C@@H](C)O (H-SFR[Nva(4-oxo)]GVGTGMKKTSFQRAKS-OH)

The next lines start with the compound.

Compound | Activity [%]
CSCC[C@H](NC(=O)CNC(=O)[C@@H](NC(=O)CNC(=O)[C@@H](NC(=O)CNC(=O)[C@H](CC(N)=O)NC(=O)[C@H](CCCNC(=N)NS(=O)(=O)c1ccc(C)cc1)NC(=O)[C@H](Cc1ccccc1)NC(=O)[C@@H](N)CO)C(C)C)[C@@H](C)O)C(=O)N[C@@H](CCCCN)C(=O)N[C@@H](CCCCN)C(=O)N[C@H](C(=O)N[C@@H](CO)C(=O)N[C@@H](Cc1ccccc1)C(=O)N[C@@H](CCC(N)=O)C(=O)N[C@@H](CCCNC(=N)N)C(=O)N[C@@H](C)C(=O)N[C@@H](CCCCN)C(=O)N[C@@H](CO)C(=O)O)[C@@H](C)O (H-SFR(Tos)NGVGTGMKKTSFQRAKS-OH) | 104
CSCC[C@H](NC(=O)CNC(=O)[C@@H](NC(=O)CNC(=O)[C@@H](NC(=O)CNC(=O)[C@H](CC(=O)N(C)C)NC(=O)[C@H](CCCNC(=N)N)NC(=O)[C@H](Cc1ccccc1)NC(=O)[C@@H](N)CO)C(C)C)[C@@H](C)O)C(=O)N[C@@H](CCCCN)C(=O)N[C@@H](CCCCN)C(=O)N[C@H](C(=O)N[C@@H](CO)C(=O)N[C@@H](Cc1ccccc1)C(=O)N[C@@H](CCC(N)=O)C(=O)N[C@@H](CCCNC(=N)N)C(=O)N[C@@H](C)C(=O)N[C@@H](CCCCN)C(=O)N[C@@H](CO)C(=O)O)[C@@H](C)O (H-SFRD(NMe2)GVGTGMKKTSFQRAKS-OH) | 89
CSCC[C@H](NC(=O)CNC(=O)[C@@H](NC(=O)CNC(=O)[C@@H](NC(=O)CNC(=O)[C@H](CCN)NC(=O)[C@H](CCCNC(=N)N)NC(=O)[C@H](Cc1ccccc1)NC(=O)[C@@H](N)CO)C(C)C)[C@@H](C)O)C(=O)N[C@@H](CCCCN)C(=O)N[C@@H](CCCCN)C(=O)N[C@H](C(=O)N[C@@H](CO)C(=O)N[C@@H](Cc1ccccc1)C(=O)N[C@@H](CCC(N)=O)C(=O)N[C@@H](CCCNC(=N)N)C(=O)N[C@@H](C)C(=O)N[C@@H](CCCCN)C(=O)N[C@@H](CO)C(=O)O)[C@@H](C)O (H-SFR[Dab]GVGTGMKKTSFQRAKS-OH) | 169
CCC[C@H](NC(=O)[C@H](CCCNC(=N)N)NC(=O)[C@H](Cc1ccccc1)NC(=O)[C@@H](N)CO)C(=O)NCC(=O)N[C@H](C(=O)NCC(=O)N[C@H](C(=O)NCC(=O)N[C@@H](CCSC)C(=O)N[C@@H](CCCCN)C(=O)N[C@@H](CCCCN)C(=O)N[C@H](C(=O)N[C@@H](CO)C(=O)N[C@@H](Cc1ccccc1)C(=O)N[C@@H](CCC(N)=O)C(=O)N[C@@H](CCCNC(=N)N)C(=O)N[C@@H](C)C(=O)N[C@@H](CCCCN)C(=O)N[C@@H](CO)C(=O)O)[C@@H](C)O)[C@@H](C)O)C(C)C (H-SFR[Nva]GVGTGMKKTSFQRAKS-OH) | 240
CSCC[C@H](NC(=O)CNC(=O)[C@@H](NC(=O)CNC(=O)[C@@H](NC(=O)CNC(=O)[C@H](CC(N)=O)NC(=O)[C@H](Cc1ccccn1)NC(=O)[C@H](Cc1ccccc1)NC(=O)[C@@H](N)CO)C(C)C)[C@@H](C)O)C(=O)N[C@@H](CCCCN)C(=O)N[C@@H](CCCCN)C(=O)N[C@H](C(=O)N[C@@H](CO)C(=O)N[C@@H](Cc1ccccc1)C(=O)N[C@@H](CCC(N)=O)C(=O)N[C@@H](CCCNC(=N)N)C(=O)N[C@@H](C)C(=O)N[C@@H](CCCCN)C(=O)N[C@@H](CO)C(=O)O)[C@@H](C)O (H-SF[2Pal]NGVGTGMKKTSFQRAKS-OH) | 19
